BindingDB's records for patent US20240150287 (Hangzhou Apeloa Medicine Research Institute Co., 2024)

Biological target: T1, Mucosal addressin cell adhesion molecule 1/Integrin alpha-4/beta-7 (Homo sapiens, UniProt P13612+P26010+Q13477)
T1 sequence (P13612 whole entry): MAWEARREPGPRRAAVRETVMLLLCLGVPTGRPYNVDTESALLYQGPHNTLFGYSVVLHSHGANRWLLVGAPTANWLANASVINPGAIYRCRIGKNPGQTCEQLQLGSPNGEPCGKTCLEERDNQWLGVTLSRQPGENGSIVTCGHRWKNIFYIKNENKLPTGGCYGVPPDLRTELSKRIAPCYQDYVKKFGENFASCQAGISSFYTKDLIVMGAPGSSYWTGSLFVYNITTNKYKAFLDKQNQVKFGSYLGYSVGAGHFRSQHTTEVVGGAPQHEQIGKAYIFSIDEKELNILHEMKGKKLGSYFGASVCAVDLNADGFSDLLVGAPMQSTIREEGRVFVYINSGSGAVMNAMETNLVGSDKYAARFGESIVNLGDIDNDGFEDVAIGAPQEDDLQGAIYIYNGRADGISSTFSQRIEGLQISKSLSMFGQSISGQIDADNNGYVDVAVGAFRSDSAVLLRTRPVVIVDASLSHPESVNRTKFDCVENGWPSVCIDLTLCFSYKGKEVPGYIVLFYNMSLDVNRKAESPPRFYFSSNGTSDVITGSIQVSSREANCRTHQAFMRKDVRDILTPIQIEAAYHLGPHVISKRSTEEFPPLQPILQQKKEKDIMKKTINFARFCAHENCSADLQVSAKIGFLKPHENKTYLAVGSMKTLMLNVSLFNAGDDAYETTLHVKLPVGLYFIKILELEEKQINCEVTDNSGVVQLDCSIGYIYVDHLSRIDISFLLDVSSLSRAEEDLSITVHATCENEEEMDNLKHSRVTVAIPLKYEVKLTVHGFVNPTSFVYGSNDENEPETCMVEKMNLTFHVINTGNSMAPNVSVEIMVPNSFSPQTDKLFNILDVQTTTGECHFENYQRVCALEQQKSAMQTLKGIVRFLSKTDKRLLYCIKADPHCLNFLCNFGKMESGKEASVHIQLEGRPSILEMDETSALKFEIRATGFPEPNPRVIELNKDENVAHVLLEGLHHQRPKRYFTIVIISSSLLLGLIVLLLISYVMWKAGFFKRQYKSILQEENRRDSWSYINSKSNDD
T1 sequence (P26010 whole entry): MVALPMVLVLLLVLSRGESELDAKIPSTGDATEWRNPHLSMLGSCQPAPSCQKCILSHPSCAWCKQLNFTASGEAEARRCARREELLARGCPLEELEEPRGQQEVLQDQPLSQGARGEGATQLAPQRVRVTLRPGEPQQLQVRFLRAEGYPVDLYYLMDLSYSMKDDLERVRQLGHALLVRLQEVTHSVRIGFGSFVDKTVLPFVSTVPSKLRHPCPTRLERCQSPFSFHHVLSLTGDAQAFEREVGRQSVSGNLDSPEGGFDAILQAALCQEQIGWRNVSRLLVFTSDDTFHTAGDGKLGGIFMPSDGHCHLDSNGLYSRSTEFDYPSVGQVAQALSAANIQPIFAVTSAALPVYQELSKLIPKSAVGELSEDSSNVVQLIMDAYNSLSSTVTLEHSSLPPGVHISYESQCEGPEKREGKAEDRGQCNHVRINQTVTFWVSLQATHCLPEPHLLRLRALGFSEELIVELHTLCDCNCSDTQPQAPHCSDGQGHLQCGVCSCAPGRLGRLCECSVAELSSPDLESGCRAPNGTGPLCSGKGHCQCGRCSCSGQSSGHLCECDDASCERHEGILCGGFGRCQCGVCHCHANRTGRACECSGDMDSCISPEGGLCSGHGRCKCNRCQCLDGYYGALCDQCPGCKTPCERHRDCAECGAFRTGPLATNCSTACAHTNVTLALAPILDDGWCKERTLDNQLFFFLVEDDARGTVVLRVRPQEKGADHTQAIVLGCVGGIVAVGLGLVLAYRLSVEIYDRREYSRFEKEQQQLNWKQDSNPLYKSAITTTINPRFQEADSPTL
T1 sequence (Q13477 whole entry): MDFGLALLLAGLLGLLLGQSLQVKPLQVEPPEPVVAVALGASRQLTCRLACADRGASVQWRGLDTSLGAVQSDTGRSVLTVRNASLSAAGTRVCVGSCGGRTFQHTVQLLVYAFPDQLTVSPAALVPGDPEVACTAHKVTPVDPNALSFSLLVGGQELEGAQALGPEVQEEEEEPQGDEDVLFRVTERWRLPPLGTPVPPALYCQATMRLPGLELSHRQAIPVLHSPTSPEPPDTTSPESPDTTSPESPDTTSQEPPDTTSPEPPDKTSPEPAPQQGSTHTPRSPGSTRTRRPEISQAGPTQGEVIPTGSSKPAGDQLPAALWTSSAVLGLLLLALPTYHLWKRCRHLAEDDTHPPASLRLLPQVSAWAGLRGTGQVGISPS
Assay: BINDING INHIBITION ACTIVITY EVALUATION TEST
Method: Coat the 96-well microplate (Costar) with 50 μL of recombinant human MAdCAM-1 (R&D Systems) solution per well, and incubate overnight (12-18 hours) at 4° C. Wash three times with 150 μL of TBS buffer per well. Block plate with 150 μL per well with blocking buffer for 1 h at 37° C. Wash three times with 150 μL of TBS buffer per well. Dilute the recombinant human integrin α4β7 (R&D Systems) with TBS buffer containing 0.1% bovine serum albumin (BSA), then add to the 96 well plate with 50 μL per well. Add 1 μL of test compound or DMSO, cover, incubate at room temperature for 2 h, wash three times with 150 μL of TBS buffer per well. Dilute the anti-β7 antibody (R&D Systems) with 0.1% BSA TBS buffer, then add to the 96 well plate with 50 μL per well, cover, incubate at room temperature for 1 h, wash three times with 150 μL of TBS buffer per well. Add 50 μL of streptavidin-HRP (R&D Systems) per well, incubate at room temperature for 20 min, wash three times with 150 μL of TBS buffer per well. Add 50 μL of TMB substrate solution (Sigma) per well, incubate at room temperature for 5-30 min, and add 25 μL of stop solution per well to stop the reaction. Finally, measure absorbance at 450 nm with microplate reader (SpectraMax 340PC. Molecular Devices). Repeat the test to find the binding rate […] at each concentration when the absorbance of the well without the test substance is used as 100%, and calculate the concentration IC50 that causes 50% binding inhibition.

For `COC(=O)[C@H](Cc1ccc(-n2c(=O)n(C)c3ccc(N(C)C)cc32)cc1)NC(c1ccccc1)(c1ccccc1)c1ccccc1` [US20240150287, Example 36], the IC50 was 1.51 nM.

Compound `COC(=O)[C@H](Cc1ccc(-n2c(=O)n(C)c3cc(N(C)C)ccc32)cc1)NC(c1ccccc1)(c1ccccc1)c1ccccc1` [US20240150287, Example 37] has an IC50 of 5.09 nM.

`COC(=O)[C@H](Cc1ccc(-n2c(=O)n(C)c3cccc(Cl)c32)cc1)NC(=O)c1c(Cl)cc(Cl)cc1Cl` [US20240150287, Example 38] gave an IC50 of 27.9 nM.

For `COC(=O)[C@H](Cc1ccc(-n2c(=O)n(C)c3cccc(Cl)c32)cc1)NC(=O)c1c(Cl)cc(N2CCOCC2)cc1Cl` [US20240150287, Example 39], the IC50 was 3.65 nM.
